Drawing on patent US20250122181A1, “BENZIMIDAZOLES AS MODULATORS OF IL-17” (Janssen Pharmaceutica NV, priority 2021, published 2025), this text covers IC50 for 14 molecules.

The IC50 is the point on the concentration scale where inhibition reaches its midpoint. Read a high IC50 as lower potency.

Assay [1] has as its target IL-17A(FLAG-Tagged): IL-17RA(His-Tagged) (Homo sapiens, UniProt Q16552, K93Q). Nature of the assay: IL-17A(FLAG-Tagged): IL-17RA(His-Tagged) Binding Disruption Eu-HTRF Assay, Protocol 1. The settings on record: Protocol 1, FLAG tagged IL-17A 2.5 nM; simple average if tested more than once. From the text:
An antibody directed against the FLAG tag of IL-17A (SEQ ID NO: 1) is labeled with the HTRF donor chromophore (Europium-cryptate). IL-17A is present as a dimer that is “locked into” this quaternary structure due to the formation of loop-spanning […] disulfide bridges. The construct of IL-17RA used in the assay excludes the […] portion of the receptor and is fused to a C-terminal 10×His tag (SEQ ID NO:2). An antibody directed against the His tag of the IL-17RA chimera is labeled with the HTRF acceptor chromophore (“D2”). The fluorescence-resonance energy transfer (FRET) depends on the vicinity of the donor chromophore to the acceptor, and interruption of the binding between the IL-17A and IL-17RA causes the reduction/loss of FRET. Therefore, this assay allows to evaluate the compound effect on the binding IL-17A and IL-17RA by monitoring the fluorescence intensity of donor vs acceptor. The assay was run using either Protocol 1 or Protocol 2 as described below.
Protocol 1. 40 nl of 2-fold serial diluted compound solution for total 22 dilution points is added into each well of a 1536-well, white, low-volume, non-binding plate (Greiner #782904), then 2 μl of FLAG tagged IL-17A at 2× final concentration (2.5 nM) in solution of PBS+0.01% Triton-X100 is added to each well. The assay plate is briefly centrifuged then incubated for 1 h at rt. A mixed solution is prepared containing 2×5 nM 10HIS×IL-17RA, 2×2.5 nM Eu-anti-FLAG (CISBIO), 2×5 nM D2-anti-HIS (CISBIO) in PBS+0.01% Triton-X100+200 mM Potassium Fluoride (Sigma 60238) and 2 μl of mix is added to each well of the assay plate. The plate is briefly centrifuged then incubated for 2 h at rt. The HTRF intensities at the wavelength of donor (620 nm) and acceptor (665 nm) are measured using BMG Pherastar. The ratio between intensities at two wavelengths is calculated and plotted against the compound concentration and the data is fitted to a one-site competition model to yield IC50 of the compound.
A general note: TR-FRET usually uses a lanthanide donor and a delayed reading to cut background.

The subject of assay [2] is IL-17A-induced G-CSF production in human normal keratinocyte (NHK). Nature of the assay: NHK Assay: IL-17A-induced G-CSF production in human normal keratinocyte. The assay is classed as cell-based. The settings on record: Homo sapiens, Keratinocyte, 24 h, IL-17A 5 ng/mL, simple average if tested more than once. Here is the method: IL-17A acts directly on keratinocytes through binding to dimeric receptor IL-17RA/RC and drives the production of a number of inflammatory mediators known to be elevated in psoriasis lesional tissue. IL-17A small molecule inhibitors that block the IL-17A to interact with IL-17R would inhibit the IL-17A signaling in its targeted cells such as keratinocytes. The compound functional activity is evaluated for its impact on IL-17A-induced G-CSF production in human normal keratinocyte (NHK).
Adult normal human keratinocytes are cultured in keratinocyte growth medium (Lonza) in a flask till reaching ˜90% confluence, then cells are transferred to a 384-well plate at density of 3000-4000 cell/well. Recombinant human IL-17A (Gibco PHC9174) is pre-incubated with titrated compound or DMSO for 1 h at rt then added to the cell culture plate. The final concentration of IL-17A is 5 ng/mL and DMSO is 0.2%, in the culture containing 5% FBS. Cells are cultured/treated for 24 h at 37° C. Supernatants are collected and G-CSF production is measured through HTRF technology using Human G-CSF Kit (CisBio). G-CSF concentration was extrapolated from the standard curve and IC50 is determined using GraphPad Prism. Cell viability is also evaluated using CellTiter-Glo kit (Promega) and effect of compound on cell viability is compared to DMSO control.

Some results are limits rather than exact numbers.

Sequence of UniProt Q16552 (Q16552 with tags, fused parts or gaps K93Q): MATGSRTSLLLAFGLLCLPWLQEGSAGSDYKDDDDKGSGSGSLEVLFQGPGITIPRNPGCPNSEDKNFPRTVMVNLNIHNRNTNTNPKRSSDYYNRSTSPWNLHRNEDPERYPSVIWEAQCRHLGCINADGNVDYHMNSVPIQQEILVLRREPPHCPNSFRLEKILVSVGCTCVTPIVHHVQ

`Cc1nonc1C(=O)NC(c1nc2cc([C@@H](C3CC3)N3C[C@@H](C(F)(F)F)NC3=O)ccc2[nH]1)[C@@H](C)O[C@H](C)C(F)(F)F` (single isomer, unassigned) [Example 10, N-((1R*,2R)-1-(5-((R)-Cyclopropyl((S)-2-oxo-4-(trifluoromethyl)imidazolidin-1-yl)methyl)-1H-benzo[d]imidazol-2-yl)-2-(((R)-1,1,1-trifluoropropan-2-yl)oxy)propyl)-4-methyl-1,2,5-oxadiazole-3-carboxamide]: the half-maximal inhibitory concentration (IC50) in assay [1] and in assay [2] was less than 50 nM in each case.
With `COC[C@H](c1ccc2[nH]c(C(COC(C)(C)C(F)(F)F)NC(=O)c3nonc3C)nc2c1)N1C[C@@H](C(F)(F)F)NC1=O` (single isomer, unassigned) [Example 31, N—((R*)-1-(5-((S)-2-Methoxy-1-((S)-2-oxo-4-(trifluoromethyl)imidazolidin-1-yl)ethyl)-1H-benzo[d]imidazol-2-yl)-2-((1,1,1-trifluoro-2-methylpropan-2-yl)oxy)ethyl)-4-methyl-1,2,5-oxadiazole-3-carboxamide], the concentration for half-maximal inhibition (IC50) in assay [1] and in assay [2] was less than 50 nM in each case.
`COC[C@H](c1ccc2[nH]c(C(COC(C)(C)C(F)(F)F)NC(=O)c3nonc3C3CC3)nc2c1)N1CC(F)(F)CNC1=O` (single isomer, unassigned) [Example 35, 4-Cyclopropyl-N—((R*)-1-(5-((S)-1-(5,5-difluoro-2-oxotetrahydropyrimidin-1(2H)-yl)-2-methoxyethyl)-1H-benzo[d]imidazol-2-yl)-2-((1,1,1-trifluoro-2-methylpropan-2-yl)oxy)ethyl)-1,2,5-oxadiazole-3-carboxamide]: the IC50 in assay [1] and in assay [2] was less than 50 nM each time.
Consider `COC[C@H](c1ccc2[nH]c(C(COC(C)(C)C(F)(F)F)NC(=O)c3nonc3C3CC3)nc2c1)N1C[C@@H](C(F)(F)F)NC1=O` (single isomer, unassigned) [Example 47, 4-Cyclopropyl-N—((R*)-1-(5-((S)-2-methoxy-1-((S)-2-oxo-4-(trifluoromethyl)imidazolidin-1-yl)ethyl)-1H-benzo[d]imidazol-2-yl)-2-((1,1,1-trifluoro-2-methylpropan-2-yl)oxy)ethyl)-1,2,5-oxadiazole-3-carboxamide], for which the IC50 in assay [1] and in assay [2] was less than 50 nM throughout.
In the case of `Cc1nonc1C(=O)NC(c1nc2cc([C@@H](C3CC3)N3C[C@@H](C(F)(F)F)NC3=O)ccc2[nH]1)[C@@H](C)O[C@@H](C)C(F)(F)F` (single isomer, unassigned) [Example 13, N-((1R*,2R)-1-(5-((R)-Cyclopropyl((S)-2-oxo-4-(trifluoromethyl)imidazolidin-1-yl)methyl)-1H-benzo[d]imidazol-2-yl)-2-(((S)-1,1,1-trifluoropropan-2-yl)oxy)propyl)-4-methyl-1,2,5-oxadiazole-3-carboxamide], the concentration for half-maximal inhibition (IC50) in assay [1] and in assay [2] was less than 50 nM throughout.
On to `CC(C)(OC[C@@H](NC(=O)c1nonc1C1CC1)c1nc2cc(CN3C[C@@H](C(F)(F)F)NC3=O)ccc2[nH]1)C(F)(F)F` (single isomer, unassigned) [Example 16], for which the concentration for half-maximal inhibition (IC50) in assay [1] and in assay [2] was greater than 100 nM in each case.
As to `Cc1nonc1C(=O)N[C@@H](COC(C)(C)C(F)(F)F)c1nc2cc([C@@H](C3CC3)N3CC4(CC4)NC3=O)ccc2[nH]1` [Example 87, N—((R)-1-(5-((R)-Cyclopropyl(5-oxo-4,6-diazaspiro[2.4]heptan-6-yl)methyl)-1H-benzo[d]imidazol-2-yl)-2-((1,1,1-trifluoro-2-methylpropan-2-yl)oxy)ethyl)-4-methyl-1,2,5-oxadiazole-3-carboxamide], the concentration for half-maximal inhibition (IC50) in assay [1] and in assay [2] was less than 50 nM throughout.
As to `[2H]C1([2H])[C@@H](C(F)(F)F)NC(=O)N1[C@@H](c1ccc2[nH]c([C@@H](NC(=O)c3nonc3C)[C@@H](C)O[C@@H](C)C(F)(F)F)nc2c1)C1CC1` (single isomer, unassigned) [Example 11], the IC50 in assay [1] and in assay [2] was greater than 100 nM throughout.
With `Cc1nonc1C(=O)NC(c1nc2nc([C@@H](C3CC3)N3CC(F)(F)CNC3=O)ccc2[nH]1)[C@@H](C)O[C@H](C)C(F)(F)F` (single isomer, unassigned) [Example 19, N-((1R*,2R)-1-(5-((R)-Cyclopropyl(5,5-difluoro-2-oxotetrahydropyrimidin-1(2H)-yl)methyl)-1H-imidazo[4,5-b]pyridin-2-yl)-2-(((R)-1,1,1-trifluoropropan-2-yl)oxy)propyl)-4-methyl-1,2,5-oxadiazole-3-carboxamide], the IC50 in assay [1] is less than 50 nM; in assay [2] it was 50 to 100 nM.
Consider `C[C@H](O[C@H](C)C(NC(=O)c1ccnn1C)c1nc2cc([C@@H](C3CC3)N3C[C@@H](C(F)(F)F)NC3=O)ccc2[nH]1)C(F)(F)F` (single isomer, unassigned) [Example 14, N-((1R*,2R)-1-(5-((R)-Cyclopropyl((S)-2-oxo-4-(trifluoromethyl)imidazolidin-1-yl)methyl)-1H-benzo[d]imidazol-2-yl)-2-(((S)-1,1,1-trifluoropropan-2-yl)oxy)propyl)-1-methyl-1H-pyrazole-5-carboxamide], for which the IC50 in assay [1] and in assay [2] was less than 50 nM in each case.
For `Cc1nonc1C(=O)NC(COC(C)(C)C(F)(F)F)c1nc2nc([C@@H](C3CC3)N3CC(F)(F)CNC3=O)ccc2[nH]1` (single isomer, unassigned) [Example 18, N—((R*)-1-(5-((R)-Cyclopropyl(5,5-difluoro-2-oxotetrahydropyrimidin-1(2H)-yl)methyl)-1H-imidazo[4,5-b]pyridin-2-yl)-2-((1,1,1-trifluoro-2-methylpropan-2-yl)oxy)ethyl)-4-methyl-1,2,5-oxadiazole-3-carboxamide], the values for the IC50 in assay [1] and in assay [2] were less than 50 nM and 50 to 100 nM, respectively.
The like results for `[2H]C([2H])([2H])C([2H])([2H])n1nccc1C(=O)N[C@@H](COC(C)(C)C(F)(F)F)c1nc2cc([C@@H](C3CC3)N3C[C@@H](C(F)(F)F)NC3=O)ccc2[nH]1` [Example 4, N—((R)-1-(5-((R)-Cyclopropyl((S)-2-oxo-4-(trifluoromethyl)imidazolidin-1-yl)methyl)-1H-benzo[d]imidazol-2-yl)-2-((1,1,1-trifluoro-2-methylpropan-2-yl)oxy)ethyl)-1-(ethyl-d5)-1H-pyrazole-5-carboxamide] were, in that order, less than 50 nM and less than 50 nM.
As to `CC(C)(OC[C@H](NC(=O)c1nonc1C1CC1)c1nc2cc([C@@H](C3CC3)N3CC(F)(F)CNC3=O)ccc2[nH]1)C(F)(F)F` [Example 22, 4-Cyclopropyl-N—((R)-1-(5-((R)-cyclopropyl(5,5-difluoro-2-oxotetrahydropyrimidin-1(2H)-yl)methyl)-1H-benzo[d]imidazol-2-yl)-2-((1,1,1-trifluoro-2-methylpropan-2-yl)oxy)ethyl)-1,2,5-oxadiazole-3-carboxamide], the half-maximal inhibitory concentration (IC50) in assay [1] and in assay [2] was less than 50 nM in each case.
Take `[2H]C1([2H])[C@H](C(F)(F)F)NC(=O)N1[C@@H](c1ccc2[nH]c([C@H](CC(C)(C)C(F)(F)F)NC(=O)c3nonc3C)nc2c1)C1CC1` (relative stereo) [Example 53, N—((S)-1-(5-((R)-Cyclopropyl((S*)-2-oxo-4-(trifluoromethyl)imidazolidin-1-yl-5,5-d2)methyl)-1H-benzo[d]imidazol-2-yl)-4,4,4-trifluoro-3,3-dimethylbutyl)-4-methyl-1,2,5-oxadiazole-3-carboxamide]: the half-maximal inhibitory concentration (IC50) in assay [1] and in assay [2] was less than 50 nM in each case.
